Laboratory results taken from patent US20260262643A1, “HERBICIDAL BENZOXAZINES” (FMC CORPORATION, priority 2022, published 2026).

Columns and labels:
[1] = tested on: oat, wild; assay: Test C postemergence; format: in vivo, Avena fatua; settings: 10 days, 0 to 100 scale (0 no effect, 100 complete control)
How it was run: (§1)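 Visual injury ratings on a 0–100 scale (100 = complete control) were made against untreated controls 10 days after treatment in the greenhouse. Compounds, formulated with surfactant in non-phytotoxic solvent, were sprayed on soil preemergence or onto one- to two-leaf plants 2–10 cm tall postemergence.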

[2] = tested on: kochia; assay: Test C postemergence; format: in vivo, Bassia scoparia; settings: 10 days, 0 to 100 scale (0 no effect, 100 complete control)
How it was run: as §1

[3] = tested on: blackgrass; assay: Test C postemergence; format: in vivo, Alopecurus myosuroides; settings: 10 days, 0 to 100 scale (0 no effect, 100 complete control)
How it was run: as §1

[4] = tested on: barnyardgrass; assay: Test C preemergence; format: in vivo, Echinochloa crusgalli
How it was run: as §1

[5] = tested on: ragweed; assay: Test C postemergence; format: in vivo, Ambrosia artemisiifolia; settings: 10 days, 0 to 100 scale (0 no effect, 100 complete control)
How it was run: as §1

[6] = tested on: galium; assay: Test C postemergence; format: in vivo, Galium aparine; settings: 10 days, 0 to 100 scale (0 no effect, 100 complete control)
How it was run: as §1

[7] = tested on: pigweed, palmer; assay: Test C preemergence; format: in vivo, Amaranthus palmeri
How it was run: as §1

[8] = tested on: ryegrass, Italian; assay: Test C postemergence; format: in vivo, Lolium multiflorum; settings: 10 days, 0 to 100 scale (0 no effect, 100 complete control)
How it was run: as §1

[9] = tested on: ducksalad; assay: Test D flooded paddy test; format: in vivo, Heteranthera limosa; settings: 250 g ai/ha, applied to paddy water, visual rating after 13 to 14 days, scale 0 to 100 (0 no effect, 100 complete control)
How it was run: (§2)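 Post-flood water application at the 2-leaf stage; 3 cm flood depth kept constant; visual control rating 0–100 after 13–14 days greenhouse growth.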

[10] = tested on: oat, wild; assay: Test C preemergence; format: in vivo, Avena fatua
How it was run: as §1

[11] = tested on: wheat; assay: Test C preemergence; format: in vivo, Triticum aestivum
How it was run: as §1

[12] = tested on: corn; assay: Test C postemergence; format: in vivo, Zea mays; settings: 10 days, 0 to 100 scale (0 no effect, 100 complete control)
How it was run: as §1

[13] = tested on: rice; assay: Test D flooded paddy test; format: in vivo, Oryza sativa; settings: 250 g ai/ha, applied to paddy water, visual rating after 13 to 14 days, scale 0 to 100 (0 no effect, 100 complete control)
How it was run: as §2

[14] = tested on: foxtail, giant; assay: Test C postemergence; format: in vivo, Setaria faberi; settings: 10 days, 0 to 100 scale (0 no effect, 100 complete control)
How it was run: as §1

[15] = tested on: soybean; assay: Test C preemergence; format: in vivo, Glycine max
How it was run: as §1

[16] = tested on: blackgrass; assay: Test C preemergence; format: in vivo, Alopecurus myosuroides
How it was run: as §1

[17] = tested on: corn; assay: Test C preemergence; format: in vivo, Zea mays
How it was run: as §1

[18] = tested on: horseweed; assay: Test C postemergence; format: in vivo, Erigeron canadensis; settings: 10 days, 0 to 100 scale (0 no effect, 100 complete control)
How it was run: as §1

[19] = tested on: wheat; assay: Test C postemergence; format: in vivo, Triticum aestivum; settings: 10 days, 0 to 100 scale (0 no effect, 100 complete control)
How it was run: as §1

[20] = tested on: ragweed; assay: Test C preemergence; format: in vivo, Ambrosia artemisiifolia
How it was run: as §1

[21] = tested on: foxtail, giant; assay: Test C preemergence; format: in vivo, Setaria faberi
How it was run: as §1

[22] = tested on: pigweed, palmer; assay: Test C postemergence; format: in vivo, Amaranthus palmeri; settings: 10 days, 0 to 100 scale (0 no effect, 100 complete control)
How it was run: as §1

[23] = tested on: ryegrass, Italian; assay: Test C preemergence; format: in vivo, Lolium multiflorum
How it was run: as §1

[24] = tested on: kochia; assay: Test C preemergence; format: in vivo, Bassia scoparia
How it was run: as §1

[25] = tested on: barnyardgrass; assay: Test C postemergence; format: in vivo, Echinochloa crusgalli; settings: 10 days, 0 to 100 scale (0 no effect, 100 complete control)
How it was run: as §1

[26] = tested on: sedge, umbrella; assay: Test D flooded paddy test; format: in vivo, Cyperus difformis; settings: 250 g ai/ha, applied to paddy water, visual rating after 13 to 14 days, scale 0 to 100 (0 no effect, 100 complete control)
How it was run: as §2

[27] = tested on: soybean; assay: Test C postemergence; format: in vivo, Glycine max; settings: 10 days, 0 to 100 scale (0 no effect, 100 complete control)
How it was run: as §1

[28] = tested on: barnyardgrass; assay: Test D flooded paddy test; format: in vivo, Echinochloa crus-galli; settings: 250 g ai/ha, applied to paddy water, visual rating after 13 to 14 days, scale 0 to 100 (0 no effect, 100 complete control)
How it was run: as §2

[29] = 500 g ai/ha, preemergence, 0 to 100 scale (0 no effect, 100 complete control)
[30] = Preemergence, 125 g ai/ha, 0 to 100 scale, 0 no effect, 100 complete control

## CCc1ncn(-c2cccc(C(=O)N3CC(C(F)(F)F)Oc4c(Cl)cccc43)c2)n1 (stereo not shown) [Compound 345]
[1]; 500 g ai/ha, postemergence
  Plant response rating, Oat, Wild: 30
[1]; Postemergence, 125 g ai/ha
  Plant response rating, Oat, Wild: 20
[2]; 500 g ai/ha, postemergence
  Plant response rating, Kochia: 90
[2]; Postemergence, 125 g ai/ha
  Plant response rating, Kochia: 80
[3]; 500 g ai/ha, postemergence
  Plant response rating, Blackgrass: 90
[3]; Postemergence, 125 g ai/ha
  Plant response rating, Blackgrass: 50
[4]; [29]
  Barnyardgrass plant response rating: 100
[4]; [30]
  Plant response rating, Barnyardgrass: 60
[5]; 500 g ai/ha, postemergence
  Plant response rating, Ragweed: 60
[5]; Postemergence, 125 g ai/ha
  Plant response rating, Ragweed: 40
[6]; 500 g ai/ha, postemergence
  Plant response rating, Galium: 100
[6]; Postemergence, 125 g ai/ha
  Plant response rating, Galium: 100
[7]; [29]
  Pigweed, Palmer plant response rating: 100
[7]; [30]
  Plant response rating, Pigweed, Palmer: 100
[8]; 500 g ai/ha, postemergence
  Plant response rating, Ryegrass, Italian: 80
[8]; Postemergence, 125 g ai/ha
  Plant response rating, Ryegrass, Italian: 60
[9]
  Plant response rating, Ducksalad (Flood): 65
[10]; [29]
  Oat, Wild plant response rating: 80
[10]; [30]
  Plant response rating, Oat, Wild: 10
[11]; [29]
  Wheat plant response rating: 10
[11]; [30]
  Plant response rating, Wheat: 0
[12]; 500 g ai/ha, postemergence
  Plant response rating, Corn: 80
[12]; Postemergence, 125 g ai/ha
  Plant response rating, Corn: 30
[13]
  Plant response rating, Rice (Flood): 10
[14]; 500 g ai/ha, postemergence
  Plant response rating, Foxtail, Giant: 90
[14]; Postemergence, 125 g ai/ha
  Plant response rating, Foxtail, Giant: 60
[15]; [29]
  Soybean plant response rating: 100
[15]; [30]
  Plant response rating, Soybean: 30
[16]; [29]
  Blackgrass plant response rating: 90
[16]; [30]
  Plant response rating, Blackgrass: 80
[17]; [29]
  Corn plant response rating: 30
[17]; [30]
  Plant response rating, Corn: 10
[18]; 500 g ai/ha, postemergence
  Plant response rating, Horseweed: 30
[18]; Postemergence, 125 g ai/ha
  Plant response rating, Horseweed: 0
[19]; 500 g ai/ha, postemergence
  Plant response rating, Wheat: 30
[19]; Postemergence, 125 g ai/ha
  Plant response rating, Wheat: 20
[20]; [29]
  Ragweed plant response rating: 0
[20]; [30]
  Plant response rating, Ragweed: 0
[21]; [29]
  Foxtail, Giant plant response rating: 100
[21]; [30]
  Plant response rating, Foxtail, Giant: 90
[22]; 500 g ai/ha, postemergence
  Plant response rating, Pigweed, Palmer: 80
[22]; Postemergence, 125 g ai/ha
  Plant response rating, Pigweed, Palmer: 60
[23]; [29]
  Ryegrass, Italian plant response rating: 90
[23]; [30]
  Plant response rating, Ryegrass, Italian: 80
[24]; [29]
  Kochia plant response rating: 100
[24]; [30]
  Plant response rating, Kochia: 50
[25]; 500 g ai/ha, postemergence
  Plant response rating, Barnyardgrass: 60
[25]; Postemergence, 125 g ai/ha
  Plant response rating, Barnyardgrass: 30
[26]
  Plant response rating, Sedge, Umbrella (Flood): 60
[27]; 500 g ai/ha, postemergence
  Plant response rating, Soybean: 100
[27]; Postemergence, 125 g ai/ha
  Plant response rating, Soybean: 100
[28]
  Plant response rating, Barnyardgrass (Flood): 40
